Results reported in patent US8440707B2, “Antagonists of lysophosphatidic acid receptors” (Amira Pharmaceuticals, Inc., priority 2008, dated 2013).

Columns and labels:
[1] = system: highly peritoneal metastatic pancreatic cancer cell line; settings: cited from earlier work
renal fibrosis = settings: compared with LPA1 (−/−) mice, in which renal fibrosis was significantly attenuated; cited from earlier work
[2] = system: pancreatic cancer cell lines; settings: cited from earlier work
bone metastasis = settings: cited from earlier work
[3] = system: bleomycin-induced lung fibrosis; test: Bleomycin-induced lung fibrosis model in mice; type: in vivo
Text: Female CD-1 mice (Harlan, 25-30 g) are housed 4 per cage, given free access to food and water and allowed to acclimate for at least 7 days prior to test initiation. After the habituation phase, mice are lightly anesthetized with isoflurane (5% in 100% O2) and administered with bleomycin sulfate (0.01-5 U/kg, Henry Schein) via intratracheal instillation (Cuzzocrea S et al. Am J Physiol Lung Cell Mol. Physiol. 2007 May; 292(5):[…]-104. Epub 2007 Jan. 12). Mice are returned to their cages and monitored daily for the duration of the experiment. Test compound or vehicle is delivered po, ip or sc daily. The route and frequency of dosing is based on previously determined pharmacokinetic properties. All animals are sacrificed using inhaled isoflurane 3, 7, 14, 21 or 28 days after bleomycin instillation. Following sacrifice, mice are intubated with a 20 gauge angiocatheter attached to a 1 ml syringe. Lungs are lavaged with saline to obtain bronchoalveolar lavage fluid (BALF) and then removed and fixed in 10% neutral buffered formalin for subsequent histopathological analysis. BALF is centrifuged for 10 min at 800×g to pellet the cells and the cell supernatant removed and frozen at -80° C. for subsequent protein analysis using the DC protein assay kit (Biorad, Hercules, Calif.) and soluble collagen analysis using Sircol (Biocolor Ltd, UK). BALF is analyzed for concentrations of inflammatory, pro-fibrotic and tissue injury biomarkers including transforming growth factor β1, hyaluronic acid, tissue inhibitor of metalloproteinase-1, matrix matelloproteinase-7, connective tissue growth factor and lactate dehydrogenase activity, using commercially available ELISA. The cell pellet is re-suspended in PBS. Total cell counts are then obtained using a Hemavet hematology system (Drew Scientific, Wayne, Pa.) and differential cells counts are determined using Shandon cytospin (Thermo Scientific, Waltham, Mass.). Lung tissue is stained using hematoxylin and eosin (H&E) and trichrome and lung fibrosis is determined by semiquantitative histopathological scoring (Ashcroft T. et al. J. Clin. Path. 1988; 41; 4, 467-470) using light microscopy (10× magnification) and quantitative, computer-assisted densitometry of collagen in lung tissue sections using light microscopy. The data are plotted using Graphpad prism and statistical differences between groups determined.

[4] = system: CCl4-induced liver fibrosis; test: Mouse carbon tetrachloride (CCl4)-induced liver fibrosis model; type: in vivo; settings: for collagen deposition in the liver: as compared to the untreated group
Method: Female C57BL/6 mice (Harlan, 20-25 g) housed 4/cage are given free access to food and water and allowed to acclimate for at least 7 days prior to test initiation. After the habituation phase, mice receive CCl4 (0.5-1.0 ml/kg body weight) diluted in corn oil vehicle (100 μL volume) via i.p. injection twice a week for 4-6 weeks. (Higazi, A. A. et al., Clin Exp Immunol. 2008 April; 152(1):163-73. Epub 2008 Feb. 14). Control mice receive an equivalent volume of corn oil vehicle only. Test compound or vehicle is delivered po, ip or sc daily. At the end of the study (4-6 weeks after first i.p. injection of CCl4), mice are sacrificed using inhaled isoflurane and blood is drawn via cardiac puncture for subsequent analysis of ALT/AST levels. The liver is harvested, and one half of the liver is frozen at −80° C. and the other half is fixed in 10% neutral buffered formalin for histological assessment of liver fibrosis using light microscopy (10× magnification). Liver tissue homogenates are analyzed for collagen levels using Sircol (Biocolor Ltd, UK). Fixed Liver tissue is stained using hematoxylin and eosin (H&E) and trichrome and liver fibrosis is determined by quantitative, computer-assisted densitometry of collagen in liver tissue sections using light microscopy. Plasma and liver tissue lysates are also analyzed for concentrations of inflammatory, pro-fibrotic and tissue injury biomarkers including transforming growth factor β1, hyaluronic acid, tissue inhibitor of metalloproteinase-1, matrix matelloproteinase-7, connective tissue growth factor and lactate dehydrogenase activity, using commercially available ELISA. The resulting data are plotted using Graphpad prism and statistical differences between groups determined.

[5] = chronic setting (14-days only), single bleomycin instillation (3.0 units)
[6] = chronic setting (14 and 28 day), single bleomycin (1.5 units/kg) instillation
[7] = chronic setting, repeated bleomycin (3.0-5.0 units/kg/week) instillations

What does the source list for `Cc1noc(-c2ccc(CSCCC(=O)O)cc2)c1NC(=O)OC(C)c1ccccc1Cl` (centres unmarked) [Ki16425]?
LPA-induced and ascites-induced invasion activity [1]: blocked; development of renal fibrosis in UUO mice (renal fibrosis): closely resembled the LPA1 (−/−) mice; in vitro migration in response to LPA and peritoneal fluid (ascites) from pancreatic cancer patients [2]: effectively blocked; metastasis to bone in vivo (bone metastasis): inhibit

What does the source list for `Cc1noc(-c2ccc(-c3ccc(CC(=O)O)cc3)cc2)c1NC(=O)O[C@H](C)c1ccccc1` [Compound 37, {4′-[3-Methyl-4-((R)-1-phenyl-ethoxycarbonylamino)-isoxazol-5-yl]-biphenyl-4-yl}-acetic acid]?
lactate in the BALF ([3]; acute setting (3-day)): reduced; tissue inhibitor of metalloproteinase-1 (TIMP-1; pro-fibrotic marker) concentrations in BALF ([3]; acute setting (3 day)): reduced; total protein in broncheoalveolar lavage fluid (BALF) ([3]; acute setting (3 day)): reduced; fibrosis [3, 5]: decreased; inflammatory cell influx [3, 5]: decreased; collagen deposition in the liver [4]: significantly reduced

For `Cc1noc(-c2ccc(-c3ccc(CC(=O)O)cc3)cc2)c1NC(=O)O[C@H](C)c1ccccc1Cl` [Compound 27, (4′-{4-[(R)-1-(2-Chloro-phenyl)-ethoxycarbonylamino]-3-methyl-isoxazol-5-yl}-biphenyl-4-yl)-acetic acid], which “lactate dehydrogenase activity (LDH; tissue injury marker) in BALF” value ([3]; acute setting (3 day)) is on record?
The value was “significantly reduced”.

And the “tissue inhibitor of metalloproteinase-1 (TIMP-1; pro-fibrotic marker) concentrations in BALF” value ([3]; acute setting (3 day))?
The value was “significantly reduced”.

And the “total protein in broncheoalveolar lavage fluid (BALF)” value ([3]; acute setting (3 day))?
The value was “significantly reduced”.

What about the fibrosis [3, 6] of the same molecule?
Its fibrosis is “decreased”.

What about the inflammatory cell influx [3, 6] of the same molecule?
The inflammatory cell influx was “decreased”.

What about the mouse body weight [3, 6] of the same molecule?
Its mouse body weight is “maintained”.

What about the lung fibrosis [3, 7] of the same molecule?
The lung fibrosis was “decreased”.

What about the pulmonary resistance [3, 7] of the same molecule?
The pulmonary resistance was “decreased”.

And the “effect on collagen deposition compared with pirfenidone” value ([4]; 30 mg/kg, po, qd)?
The value was “same effect”.

And the “collagen deposition in the liver” value [4]?
Its value is “significantly reduced”.
